Structures are written as SMILES.

The values below come from patent US9278982B2, “Targeting human thymidylate kinase induces DNA repair toxicity in malignant tumor cells” (NATIONAL YANG-MING UNIVERSITY, priority 2010, dated 2016).

One data set relates to CL-1-0. Briefly: Doxorubicin sensitization, MTS viability assay. In kind it is cell-based, human. To be noted: Homo sapiens, CL1-0, vehicle 72 h, doxorubicin 4 h, viability after 2 days, read-out: IC50 of doxorubicin treatment, Vehicle. On the procedure: (§1) FIG. 16. In vitro and in vivo effect of YMU1 on doxorubicin sensitization. (A) A panel of cell lines were pre-treated with vehicle, YMU1 (compound 21), D6 (ethyl 4-(2-chloroacetyl)piperazine-1-carboxylate) or D7 (compound 28) for 3 days and were exposed to different concentration of doxorubicin for 4 h. […] The enhancement (fold) of doxorubicin sensitivity in each cell line was calculated. Data represent mean±s.d., n=3; each experiment was quadruplex. Inset indicates the IC50 value of doxorubicin in various cell lines. […] Following overnight culture, cells were refreshed with growth medium. After 14 days of culture, colonies were fixed, stained by crystal violet and counted. (C) HCT-116 p53^−/− cells were subcutaneously implanted in the right flank of Balb/c nude mice (each experimental group n=8). Arrow indicated the time of stopping drug treatment. The tumor volume was estimated as described in Methods of the Invention section. (D) After 2 weeks recovered from treatment, mice were sacrificed for tumor weight measurement. Data represent mean±s.e.m; **, P<0.01 by a two-tailed Student's t-test. (E) Ki 67 proliferation marker staining of tumor shown in left panel. Scale bar, 50 μm. (F) Model of doxorubicin sensitization by YMU1 in malignant cancer cells. Both R2/R1 and TMPK are recruited to the site of doxorubicin-induced double-strand breaks, where dATP, dGTP, dCTP, dTTP and dUTP are site-specific synthesized. Inhibition of TMPK decreases dTTP formation at DNA damage sites, causing futile DNA repair due to dUTP incorporation.
(§2) Next, various human cancer cell lines were treated with YMU1, D6 or D7 for 72 h to test the potential of TMPK inhibitor in doxorubicin sensitization. After exposure to different concentration of doxorubicin for 4 h, cells were refreshed for viability analysis after 2 days and the IC50 value for doxorubicin in each of the cell lines was determined (FIG. 16A and Table 2).
(§3) Cells plated into a 96-well plate (10^3 cells/well) were treated and cell viability was measured by MTS assay (Promega) (Cory et al., 1991). An annexin V-fluorescein isothiocyanate (FITC) apoptosis kit (Calbiochem) was used to detect apoptosis. The cell cycle analysis was performed by staining cells with propidium iodide (PI) for fluorescence-activated cell sorter (FACS) analysis with CellQuest software.

In another data set the test system is Capan1. Briefly: Doxorubicin sensitization, MTS viability assay. In kind it is cell-based, human. To be noted: Homo sapiens, CAPAN-1, vehicle 72 h, doxorubicin 4 h, viability after 2 days, read-out: IC50 of doxorubicin treatment, Vehicle. The method, then:
as §1, §2, §3

Another data set relates to H1299. The experiment in a line: Doxorubicin sensitization, MTS viability assay. The format is cell-based, human. To be noted: Homo sapiens, NCI-H1299, vehicle 72 h, doxorubicin 4 h, viability after 2 days, read-out: IC50 of doxorubicin treatment, Vehicle. The method, then: as §1, §2, §3
A further data set deals with H184B5F5/M10. The experiment in a line: Doxorubicin sensitization, MTS viability assay. The format is cell-based, human. To be noted: Homo sapiens, vehicle 72 h, doxorubicin 4 h, viability after 2 days, read-out: IC50 of doxorubicin treatment, Vehicle. On the procedure: as §1, §2, §3
Another data set concerns HCC1037. Briefly: Doxorubicin sensitization, MTS viability assay. In kind it is cell-based, human. Conditions: Homo sapiens, vehicle 72 h, doxorubicin 4 h, viability after 2 days, read-out: IC50 of doxorubicin treatment, Vehicle. On the procedure: as §1, §2, §3
In a further data set the test system is HCT-116p53+/+. Briefly: Doxorubicin sensitization, MTS viability assay. The format is cell-based, human. Conditions: Homo sapiens, vehicle 72 h, doxorubicin 4 h, viability after 2 days, read-out: IC50 of doxorubicin treatment, Vehicle. The method, then:
as §1, §2, §3

The next data set relates to HCT-116p53−/−. The experiment in a line: Doxorubicin sensitization, MTS viability assay. To be noted: Homo sapiens, vehicle 72 h, doxorubicin 4 h, viability after 2 days, read-out: IC50 of doxorubicin treatment, Vehicle. The format is cell-based, human. On the procedure: as §1, §2, §3
The next data set relates to HMEC. Briefly: Doxorubicin sensitization, MTS viability assay. The format is cell-based, human. Conditions: Homo sapiens, vehicle 72 h, doxorubicin 4 h, viability after 2 days, read-out: IC50 of doxorubicin treatment, Vehicle. The method, then:
as §1, §2, §3

Another data set deals with HREC. The experiment in a line: Doxorubicin sensitization, MTS viability assay. In kind it is cell-based, human. To be noted: Homo sapiens, vehicle 72 h, doxorubicin 4 h, viability after 2 days, read-out: IC50 of doxorubicin treatment, Vehicle. The method, then:
as §1, §2, §3

For a further data set, the system named is HT-29. The experiment in a line: Doxorubicin sensitization, MTS viability assay. In kind it is cell-based, human. Conditions: Homo sapiens, vehicle 72 h, doxorubicin 4 h, viability after 2 days, read-out: IC50 of doxorubicin treatment, Vehicle. On the procedure:
as §1, §2, §3

For the next data set, the system named is IMR-90. Briefly: Doxorubicin sensitization, MTS viability assay. To be noted: Homo sapiens, vehicle 72 h, doxorubicin 4 h, viability after 2 days, read-out: IC50 of doxorubicin treatment, Vehicle. In kind it is cell-based, human. On the procedure: as §1, §2, §3
The next data set concerns MCF-10A. Briefly: Doxorubicin sensitization, MTS viability assay. In kind it is cell-based, human. To be noted: Homo sapiens, vehicle 72 h, doxorubicin 4 h, viability after 2 days, read-out: IC50 of doxorubicin treatment, Vehicle. On the procedure:
as §1, §2, §3

In a further data set the test system is MDA-MB468. The experiment in a line: Doxorubicin sensitization, MTS viability assay. The format is cell-based, human. Conditions: Homo sapiens, MDA-MB-468, vehicle 72 h, doxorubicin 4 h, viability after 2 days, read-out: IC50 of doxorubicin treatment, Vehicle. On the procedure:
as §1, §2, §3

The subject of the next data set is SaoS2. Briefly: Doxorubicin sensitization, MTS viability assay. In kind it is cell-based, human. To be noted: Homo sapiens, SAOS-2, vehicle 72 h, doxorubicin 4 h, viability after 2 days, read-out: IC50 of doxorubicin treatment, Vehicle. The method, then:
as §1, §2, §3

The subject of a further data set is U2OS. The experiment in a line: Doxorubicin sensitization, MTS viability assay. In kind it is cell-based, human. To be noted: Homo sapiens, vehicle 72 h, doxorubicin 4 h, viability after 2 days, read-out: IC50 of doxorubicin treatment, Vehicle. On the procedure:
as §1, §2, §3

Another data set concerns HCT-116 p53−/− cells. Briefly: γH2AX foci staining for induction of DNA damage (genomic toxicity). In kind it is cell-based, human. To be noted: YMU1 2 μM 2 days; FdUrd 2 μM 1 day. From the text: FIG. 14. Effect of YMU1 on genomic toxicity and DNA repair. […] After overnight, cells were exposed to doxorubicin and recovered. […]
TMPK and TS are key enzymes in dTTP synthesis and TS has been a major chemotherapy target (Garg et al., 2010). Inhibition of TS by FdUrd causes genome toxicity (Longley et al., 2003). Given the shared role of TMPK and TS in dTTP synthesis, we next compared the effects of blocking TMPK and TS by either shRNA interference or inhibitor treatment on the induction of DNA damage.
For γH2AX, Rad51 and XRCC1 staining, cells were fixed with 4% paraformaldehyde for 30 min at room temperature and were incubated with TBS (50 mM Tris-HCl, pH 7.4, 150 mM NaCl) plus 0.3% Triton X-100 for 5 min. The coverslips were blocked with MAXblock™ (Active Motif) for 1 h at 37° C., followed by staining with primary antibodies: anti-γH2AX monoclonal antibody (1:1000), anti-Rad51 polyclonal antibody (1:500) or anti-XRCC1 monoclonal antibody (1:500) overnight at 4° C. After extensive washing, cells were stained with secondary antibodies and Hoechst 33342 for 1 h at room temperature. After mounting, cells were analyzed and photographed with a Carl Zeiss fluorescence microscope equipped with AxioCam digital camera and Axio Vision Rel. 4.8 imaging software.

Data set [1] relates to H184B5F5/M10, MCF-10A, MCF-7 and HCT-116 p53−/− cells. The experiment in a line: Colony assay of cell viability, YMU1 versus FdUrd. Conditions: various concentrations thrice a week, 14 days.
Description: (B) H184B5F5/M10 cells were seeded onto 100 mm-dish at 5,000 cells/dish. MCF-10A, MCF-7 and HCT-116 p53^−/− cells were seeded onto 6 well plate at 600 cells/well. Following overnight culture, cells were treated with various concentration of YMU1 or FdUrd thrice a week. After 14 days colonies were fixed, stained by crystal violet.
We also compared the effect of YMU1 and FdUrd on cell viability of non-tumorigenic mammary cycling cells, H184B5F5/M10 and MCF-10A and tumor lines, MCF-7 and HCT-116 p53^−/− cells.
After 14 days, colonies were fixed and stained by crystal violet and counted.

In the case of `COc1cccc2c1C(=O)c1c(O)c3c(c(O)c1C2=O)C[C@@](O)(C(=O)CO)C[C@@H]3O[C@H]1C[C@H](N)[C@H](O)[C@H](C)O1` [doxorubicin, reference compound], the IC50 was determined as 4.9 ± 0.2 µM with CL-1-0; 1.13 ± 0.02 µM with Capan1; 7.19 ± 0.77 µM with H1299; 4.15 ± 0.06 µM with H184B5F5/M10; 5.52 ± 0.39 µM in the data set on HCC1037; 2.66 ± 0.49 µM in the data set on HCT-116p53+/+. Besides, the half-maximal inhibitory concentration (IC50) with HCT-116p53−/− came out at 4.1 ± 0.01 µM; in the data set on HMEC, 23.6 ± 1.23 µM; with HREC, 22.1 ± 1.18 µM; with HT-29, 12.1 ± 1.64 µM; in the data set with IMR-90 it was 14.2 ± 3.21 µM; with MCF-10A, 5.22 ± 0.39 µM. In addition, the results for the IC50 in the data set with MDA-MB468, in the data set with SaoS2 and in the data set on U2OS were 0.25 ± 0.08 µM, 7.83 ± 0.02 µM and 4.58 ± 0.14 µM, respectively.
In the case of `O=c1[nH]c(=O)n([C@H]2C[C@H](O)[C@@H](CO)O2)cc1F` [FdUrd, 5-fluoro-2′deoxyuridine], the “induction of DNA damage (γH2AX staining)” value in the data set on HCT-116 p53−/− cells is on record as “induced severe DNA damage”. In addition, the “death of cells in colony assay” value in [1] is “caused death of these cells”.
